# Measured values: US12691136B2, “Metal compositions and methods of use thereof” (THE UNIVERSITY OF MASSACHUSETTS, priority 2020, dated 2026)
# “Also recorded” adds a separate entry of the source. Read-outs that look alike come from different tables or passages of the source.
# Tests used:
# [1] = tested on: Pseudomonas aeruginosa PAO1; test: Antibacterial assay / bacterial checkerboard assay (MIC, FIC, MBC); conditions: for Enhancement: MIC without TU vs with 7 mM TU; for change in MIC / activity with the addition of TU (isobologram): FIG. 1A / 1B, combination with TU; for MIC: Pseudomonas aeruginosa; for Fold Improvement in MIC: at the best FIC; for impact of TU on activity: common antibiotics with TU, Table 3 entries; for Best FIC: with TU at the [TU] of the same line
# [2] = tested on: Pseudomonas aeruginosa PAO1; conditions: reference antibiotics against P. aeruginosa PAO1; cited from earlier work
# [3] = [Au], Table 8, strain not given
compound,measurement,setting,value
"CC(=O)OC[C@H]1O[C@@H]([S-])[C@H](OC(C)=O)[C@@H](OC(C)=O)[C@@H]1OC(C)=O.CCP(CC)CC.[Au+] [Auranofin, auranofin]",MIC (0 mM TU),"[1]; [Au], Table 9",377 µM
same,activity enhancement,[1]; 7 mM TU vs alone,256 fold
same,MIC (7 mM TU),"[1]; [Au], Table 9",1.5 µM
same,Enhancement,[1]; Table 9,256
"O.O.O.[Cl][Au-]([Cl])([Cl])[Cl].[H+] [HAuCl4 (Au^3+), tetrachloroauric(III) acid trihydrate]",MIC (0 mM TU),"[1]; [Au], Table 9",40 µM
same,activity enhancement,[1]; 7 mM TU vs alone,32 fold
same,MIC (7 mM TU),"[1]; [Au], Table 9",1.3 µM
same,Enhancement,[1]; Table 9,32
"C[PH](C)(C)[Au][S]CCO [MS-40, trimethylphosphine gold(I) mercaptoethanol]",MIC (0 mM TU),[1]; [3],5.7 µM
same,MIC (1 mM TU),"[1]; 1 mM TU, [Au], Table 8, strain not given",5.7 µM
same,MIC (2 mM TU),"[1]; 2 mM TU, [Au], Table 8, strain not given",5.7 µM
same,MIC (3 mM TU),"[1]; 3 mM TU, [Au], Table 8, strain not given",5.7 µM
same,MIC (7 mM TU),[1]; [3],5.7 µM
same,MIC (13 mM TU),"[1]; 13 mM TU, [Au], Table 8, strain not given",2.9 µM
same,MIC (27 mM TU),"[1]; 27 mM TU, [Au], Table 8, strain not given",2.9 µM
same,MIC (54 mM TU),"[1]; 54 mM TU, [Au], Table 8, strain not given",1.4 µM
same,activity enhancement,[1]; at 54 mM TU,4 fold
CCN1CCN(C(=O)N[C@@H](C(=O)N[C@@H]2C(=O)N3[C@@H]2SC(C)(C)[C@@H]3C(=O)O)c2ccccc2)C(=O)C1=O [Piperacillin],change in MIC / activity with the addition of TU (isobologram),[1],very little change
same,change in MIC / activity with the addition of TU (isobologram),[1]; listed as piperacillin,almost no change
same,MIC,"[1]; PAO1, read-out: MIC w/o TU",2 µM
same,MIC,"[1]; PAO1, read-out: MIC with TU",2 µM
same,Fold Improvement in MIC,[1],1
same,impact of TU on activity,[1],no impact
same,Best FIC,[1],1.0
"NC(N)=S [TU, thiourea]",MIC,[1]; PAO1,16 mg/mL
O=C(O)c1cn(C2CC2)c2cc(N3CCNCC3)c(F)cc2c1=O [ciprofloxacin],change in MIC / activity with the addition of TU (isobologram),[1],very little change; also recorded: almost no change
Gentamicin,change in MIC / activity with the addition of TU (isobologram),[1],very little change; also recorded: almost no change
same,MIC with TU,[1]; TU at the [TU] of the same line (best FIC),4.0 µM
same,Fold Improvement in MIC,[1],1
same,impact of TU on activity,[1],no impact
same,Best FIC,[1],1.0
same,MIC w/o TU,[1]; without TU,4.0 µM
colistin,MIC,[2],0.001 mg/mL
